{"source": "paper PMC10660663", "experiment": "SuFEx S-O bond formation: di-sulfonimidoyl fluoride (mixture of diastereomers) + diphenol (1:1), DBU 2.1 equiv, [1+1] macrocyclisation, one pot", "conditions": "the molecule shown is the open-chain precursor, MeCN, 20.0 mM, 50.0 °C"}
{"smiles": "Cc1ccc(S(=O)(F)=NC(=O)c2ccc(C(=O)N=S(=O)(Oc3cccc(Oc4cccc(Oc5cccc(O)c5)c4)c3)c3ccc(C)cc3)cc2)cc1", "note": "(stereo not drawn) [3d]", "values": [{"measurement": "ring closure, isolated yield", "setting": "23-membered ring, 3.0 h", "value": 67, "unit": "%"}]}
{"smiles": "Cc1ccc(S(=O)(F)=NC(=O)c2ccc(C(=O)N=S(=O)(Oc3ccccc3CNCCCCCCNCc3ccccc3O)c3ccc(C)cc3)cc2)cc1", "note": "(stereo not drawn) [3e]", "values": [{"measurement": "ring closure, isolated yield", "setting": "26-membered ring, 3.0 h", "value": 91, "unit": "%"}]}
{"smiles": "Cc1ccc(S(=O)(F)=NC(=O)c2ccc(C(=O)N=S(=O)(Oc3ccccc3CNCCNCc3ccccc3O)c3ccc(C)cc3)cc2)cc1", "note": "(stereo not drawn) [3f]", "values": [{"measurement": "ring closure, isolated yield", "setting": "22-membered ring, 3.0 h", "value": 87, "unit": "%"}]}
{"smiles": "Cc1ccc(S(=O)(F)=NC(=O)c2ccc(C(=O)N=S(=O)(Oc3ccc(OCCOc4ccc(O)cc4)cc3)c3ccc(C)cc3)cc2)cc1", "note": "(stereo not drawn) [3g]", "values": [{"measurement": "ring closure, isolated yield", "setting": "24-membered ring, 3.0 h", "value": 79, "unit": "%"}]}
{"smiles": "Cc1ccc(S(=O)(F)=NC(=O)c2ccc(C(=O)N=S(=O)(Oc3ccc(OCCCCCCCCOc4ccc(O)cc4)cc3)c3ccc(C)cc3)cc2)cc1", "note": "(stereo not drawn) [3h]", "values": [{"measurement": "ring closure, isolated yield", "setting": "30-membered ring, 3.0 h", "value": 62, "unit": "%"}]}
{"smiles": "Cc1ccc(S(=O)(F)=NC(=O)c2ccc(Oc3ccc(C(=O)N=S(=O)(Oc4ccc(SSc5ccc(O)cc5)cc4)c4ccc(C)cc4)cc3)cc2)cc1", "note": "(stereo not drawn) [3i]", "values": [{"measurement": "ring closure, isolated yield", "setting": "27-membered ring, 3.0 h", "value": 91, "unit": "%"}]}
{"smiles": "CCC(c1ccc(O)cc1)C(CC)c1ccc(OS(=O)(=NC(=O)c2ccc(Oc3ccc(C(=O)N=S(=O)(F)c4ccc(C)cc4)cc3)cc2)c2ccc(C)cc2)cc1", "note": "(stereo not drawn) [3j]", "values": [{"measurement": "ring closure, isolated yield", "setting": "27-membered ring, 3.0 h", "value": 88, "unit": "%"}]}
{"smiles": "Cc1ccc(S(=O)(F)=NC(=O)c2ccc(Oc3ccc(C(=O)N=S(=O)(Oc4cccc(Oc5cccc(Oc6cccc(O)c6)c5)c4)c4ccc(C)cc4)cc3)cc2)cc1", "note": "(stereo not drawn) [3k]", "values": [{"measurement": "ring closure, isolated yield", "setting": "28-membered ring, 3.0 h", "value": 88, "unit": "%"}]}
{"smiles": "Cc1ccc(S(=O)(F)=NC(=O)c2ccc(Oc3ccc(C(=O)N=S(=O)(Oc4ccc(OCCOc5ccc(O)cc5)cc4)c4ccc(C)cc4)cc3)cc2)cc1", "note": "(stereo not drawn) [3l]", "values": [{"measurement": "ring closure, isolated yield", "setting": "29-membered ring, 3.0 h", "value": 67, "unit": "%"}]}
{"smiles": "Cc1ccc(S(=O)(F)=NC(=O)c2ccc(Oc3ccc(C(=O)N=S(=O)(Oc4ccc(OCCCCOc5ccc(O)cc5)cc4)c4ccc(C)cc4)cc3)cc2)cc1", "note": "(stereo not drawn) [3m]", "values": [{"measurement": "ring closure, isolated yield", "setting": "31-membered ring, 3.0 h", "value": 78, "unit": "%"}]}
{"smiles": "Cc1ccc(S(=O)(F)=NC(=O)c2cccc(C(=O)N=S(=O)(Oc3ccc(SSc4ccc(O)cc4)cc3)c3ccc(C)cc3)c2)cc1", "note": "(stereo not drawn) [3n]", "values": [{"measurement": "ring closure, isolated yield", "setting": "21-membered ring, 3.0 h", "value": 72, "unit": "%"}]}
{"smiles": "Cc1ccc(S(=O)(F)=NC(=O)c2cccc(C(=O)N=S(=O)(Oc3ccc(C(C)(C)c4cccc(C(C)(C)c5ccc(O)cc5)c4)cc3)c3ccc(C)cc3)c2)cc1", "note": "(stereo not drawn) [3o (isophthaloyl)]", "values": [{"measurement": "ring closure, isolated yield", "setting": "24-membered ring, 3.0 h", "value": 70, "unit": "%"}]}
{"smiles": "Cc1ccc(S(=O)(F)=NC(=O)c2cccc(C(=O)N=S(=O)(Oc3cccc(Oc4cccc(Oc5cccc(O)c5)c4)c3)c3ccc(C)cc3)c2)cc1", "note": "(stereo not drawn) [3p]", "values": [{"measurement": "ring closure, isolated yield", "setting": "22-membered ring, 3.0 h", "value": 69, "unit": "%"}]}
{"smiles": "Cc1ccc(S(=O)(F)=NC(=O)c2cccc(C(=O)N=S(=O)(Oc3ccc(OCCOc4ccc(O)cc4)cc3)c3ccc(C)cc3)c2)cc1", "note": "(stereo not drawn) [3q]", "values": [{"measurement": "ring closure, isolated yield", "setting": "23-membered ring, 3.0 h", "value": 64, "unit": "%"}]}
{"smiles": "Cc1ccc(S(=O)(F)=NC(=O)c2cccc(C(=O)N=S(=O)(Oc3ccc(SSc4ccc(O)cc4)cc3)c3ccc(C)cc3)n2)cc1", "note": "(stereo not drawn) [3r]", "values": [{"measurement": "ring closure, isolated yield", "setting": "21-membered ring, 3.0 h", "value": 91, "unit": "%"}]}
{"smiles": "Cc1ccc(S(=O)(F)=NC(=O)c2ccc(-c3ccc(C(=O)N=S(=O)(Oc4ccccc4CNCCCCCCNCc4ccccc4O)c4ccc(C)cc4)cc3)cc2)cc1", "note": "(stereo not drawn) [3s]", "values": [{"measurement": "ring closure, isolated yield", "setting": "30-membered ring, 3.0 h", "value": 80, "unit": "%"}]}
{"smiles": "Cc1ccc(S(=O)(F)=NC(=O)c2ccc(-c3ccc(C(=O)N=S(=O)(Oc4ccc(C(C)(C)c5cccc(C(C)(C)c6ccc(O)cc6)c5)cc4)c4ccc(C)cc4)cc3)cc2)cc1", "note": "(stereo not drawn) [3t]", "values": [{"measurement": "ring closure, isolated yield", "setting": "29-membered ring, 3.0 h", "value": 90, "unit": "%"}]}
{"smiles": "Cc1ccc(S(=O)(F)=NC(=O)c2ccc(C(=O)N=S(=O)(Oc3ccc(Cc4ccc(O)cc4)cc3)c3ccc(C)cc3)cc2)cc1", "note": "(stereo not drawn) [3u (10 mM, 6 h)]", "values": [{"measurement": "ring closure, isolated yield", "setting": "21-membered ring, 6.0 h", "value": 94, "unit": "%"}]}
